Values after ≈ are worked out from the molar mass of the structure shown. Like-named read-outs stand apart in the source and are kept apart here.

The subject of experiment [1] is S. aureus 29213. Briefly: Antibacterial assay, standard microtitration (MIC). Format: cell-based. To be noted: Gram positive; for MIC: Staphylococcus aureus, 29213, read-out: Minimum Inhibitory Concentrations S. aureus 29213. Here is the method:
(§1) Antibacterial assay: The compounds of the present invention were tested against an assortment of Gram negative and Gram positive organisms using standard microtitration techniques (Cohen, et al., Antimicrob. Agents Chemother., 1985;28:766; Heifetz, et al., Antimicrob. Agents Chemother., 1974;6:124).

For experiment [2], the system named is E. coli B90. Briefly: Antibacterial assay, standard microtitration (MIC). To be noted: Gram negative; for MIC: Escherichia coli, B90, read-out: Minimum Inhibitory Concentrations E. coli B90. Format: cell-based. Here is the method:
as §1

In experiment [3] the test system is B. subtilis RB1. In words: Antibacterial assay, standard microtitration (MIC). Format: cell-based. To be noted: Bacillus subtilis, Gram positive, read-out: Minimum Inhibitory Concentrations B. subtilis RB1. As to the method: as §1
Experiment [4] deals with E. coli Tol C. Briefly: Antibacterial assay, standard microtitration (MIC). Format: cell-based. The note with it: for MIC: Escherichia coli, read-out: Minimum Inhibitory Concentrations E. coli Tol C; for Minimum Inhibitory Concentrations E. coli Tol C: Gram negative. Here is the method: as §1
Experiment [5] has as its system S. pyogenes C203. Briefly: Antibacterial assay, standard microtitration (MIC). It is filed as cell-based. The note with it: Gram positive; for MIC: Streptococcus pyogenes, C203, read-out: Minimum Inhibitory Concentrations S. pyogenes C203. Here is the method:
as §1

The subject of experiment [6] is E. coli MC4100. Briefly: Antibacterial assay, standard microtitration (MIC). It is filed as cell-based. The note with it: Gram negative; for MIC: Escherichia coli, MC4100, read-out: Minimum Inhibitory Concentrations E. coli MC4100. As to the method: as §1
For experiment [7], the target named is T1, E. coli gyrase (Escherichia coli, UniProt P0AES4+P0AES6).
T1 construct: purchased Lucent, Ltd., Leicester, UK
Briefly: DNA gyrase supercoiling inhibition assay. It is filed as biochemical. Here is the method: DNA gyrase assay: The effects of test agents on the activity of DNA gyrase was determined by the supercoiling inhibition assay, following reaction conditions recommended by the enzyme supplier (Lucent, Ltd., Leicester, UK), as follows. Reactions were performed in buffer G (35 mM Tris-HCl (pH 7.5), 24 mM KCl, 4 mM MgCl2, 2 mM DTT, 1.8 mM spermidine, 1 mM ATP, 0.1 mg/mL bovine serum albumin). 0.25 μg of relaxed plasmid pBR322 (Lucent, Ltd., Leicester, UK) was reacted with 1 U E. coli gyrase (Lucent, Ltd., Leicester, UK), in the absence or presence of drugs, for 30 minutes at 37° C. Reactions were stopped by the addition of SDS and proteinase K to respective final concentrations of 1% and 0.5 mg/mL. After an additional 30 minutes at 37° C., one-tenth volume of 10×loading buffer (0.3% bromophenol blue, 16% Ficoll, 10 mM Na2HPO4) was added, and reactions were loaded onto agarose gels and electrophoresed as described above for intercalation assays. The concentration of drug inhibiting 50% of the supercoiling activity of DNA gyrase is given as an IC50 and recorded in Table 2.

In experiment [8] the target is T2, E. coli Topoisomerase IV (Escherichia coli, UniProt P0AFI2+P20083).
T2 construct: made in house; host or cells: E. coli overexpressing strains
Briefly: Topoisomerase IV k-DNA decatenation assay. Format: biochemical. Here is the method:
Topoisomerase IV assay: Topoisomerase IV was purified from E. coli overexpressing strains, and the compounds were assayed according to literature conditions (Journal of Biological Chemistry, 1993;268(32):24481). The k-DNA decatenation assay was used. Briefly, reactions were performed in buffer R (40 mM Tris-HCl (pH 7.5),6 mM MgCl2, 10 mM DTT, 100 mM potassium glutamate, 40 μM ATP, 50 μg/mL bovine serum albumin, 10 mM NaCl). Two-tenths microgram of kinetoplast DNA (k-DNA; TopoGen, Columbus, Ohio) was incubated with 5 ng of E. coli Topoisomerase IV in the presence or absence of test compounds for 10 minutes at 37° C. Subsequently, one-tenth volume of 10×gel loading buffer (0.3% bromophenol blue, 16% Ficoll, 10 mM Na2HPO4) was added, and samples were loaded onto horizontal 0.8% agarose gels prepared with TBE buffer and containing 0.05 μg/mL of ethidium bromide. Electrophoresis was at 70 V for 2 to 4 hours. Gels were then examined by exposure to UV light. The concentration of drug inhibiting 50% of the decantenating activity of Topoisomerase IV is given as an IC50 and recorded in Table 2.

The mark [9] stands for this setting: supercoiling of relaxed pBR322, 30 minutes at 37° C., read-out: Gyrase IC50.
[10] abbreviates: k-DNA decatenation, 10 minutes at 37° C., read-out: DNA TopIV IC50.

T2 sequence (P20083 whole entry): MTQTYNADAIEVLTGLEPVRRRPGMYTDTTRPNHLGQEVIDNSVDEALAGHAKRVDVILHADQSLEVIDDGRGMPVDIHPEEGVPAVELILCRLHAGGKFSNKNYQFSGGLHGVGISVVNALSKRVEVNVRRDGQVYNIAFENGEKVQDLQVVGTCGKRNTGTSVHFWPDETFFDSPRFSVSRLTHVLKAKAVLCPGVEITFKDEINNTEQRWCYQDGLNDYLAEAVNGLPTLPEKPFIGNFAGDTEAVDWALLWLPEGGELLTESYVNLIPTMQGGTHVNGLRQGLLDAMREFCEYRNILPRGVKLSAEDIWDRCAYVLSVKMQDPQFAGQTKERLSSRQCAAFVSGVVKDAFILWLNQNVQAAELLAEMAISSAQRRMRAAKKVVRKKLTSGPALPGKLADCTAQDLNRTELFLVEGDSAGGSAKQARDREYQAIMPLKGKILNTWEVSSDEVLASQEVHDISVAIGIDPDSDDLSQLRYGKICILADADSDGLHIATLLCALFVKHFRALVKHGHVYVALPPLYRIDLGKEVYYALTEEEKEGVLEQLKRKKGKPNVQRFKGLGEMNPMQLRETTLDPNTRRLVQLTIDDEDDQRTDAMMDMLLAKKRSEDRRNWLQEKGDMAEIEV
T2 sequence (P0AFI2 whole entry): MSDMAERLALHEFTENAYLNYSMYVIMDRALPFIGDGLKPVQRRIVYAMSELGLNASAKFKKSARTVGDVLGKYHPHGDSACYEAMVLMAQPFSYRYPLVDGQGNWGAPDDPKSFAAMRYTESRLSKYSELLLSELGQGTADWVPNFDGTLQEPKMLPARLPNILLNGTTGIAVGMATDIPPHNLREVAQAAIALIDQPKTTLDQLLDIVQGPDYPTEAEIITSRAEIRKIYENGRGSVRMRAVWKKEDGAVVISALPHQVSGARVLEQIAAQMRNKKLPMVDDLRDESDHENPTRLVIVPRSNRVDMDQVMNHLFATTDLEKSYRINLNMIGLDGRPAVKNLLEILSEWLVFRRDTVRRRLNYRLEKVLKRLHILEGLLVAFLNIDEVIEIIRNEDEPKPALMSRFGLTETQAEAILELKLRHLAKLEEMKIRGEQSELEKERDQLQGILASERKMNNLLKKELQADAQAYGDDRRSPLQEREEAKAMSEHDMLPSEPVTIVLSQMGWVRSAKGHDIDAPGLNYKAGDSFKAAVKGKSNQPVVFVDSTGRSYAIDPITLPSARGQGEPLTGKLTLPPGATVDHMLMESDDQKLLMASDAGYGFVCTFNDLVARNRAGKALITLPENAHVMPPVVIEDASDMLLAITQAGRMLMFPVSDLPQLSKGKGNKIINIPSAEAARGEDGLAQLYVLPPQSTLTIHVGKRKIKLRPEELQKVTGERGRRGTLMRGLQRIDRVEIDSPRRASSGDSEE
T1 sequence (P0AES4 whole entry, one chain of several): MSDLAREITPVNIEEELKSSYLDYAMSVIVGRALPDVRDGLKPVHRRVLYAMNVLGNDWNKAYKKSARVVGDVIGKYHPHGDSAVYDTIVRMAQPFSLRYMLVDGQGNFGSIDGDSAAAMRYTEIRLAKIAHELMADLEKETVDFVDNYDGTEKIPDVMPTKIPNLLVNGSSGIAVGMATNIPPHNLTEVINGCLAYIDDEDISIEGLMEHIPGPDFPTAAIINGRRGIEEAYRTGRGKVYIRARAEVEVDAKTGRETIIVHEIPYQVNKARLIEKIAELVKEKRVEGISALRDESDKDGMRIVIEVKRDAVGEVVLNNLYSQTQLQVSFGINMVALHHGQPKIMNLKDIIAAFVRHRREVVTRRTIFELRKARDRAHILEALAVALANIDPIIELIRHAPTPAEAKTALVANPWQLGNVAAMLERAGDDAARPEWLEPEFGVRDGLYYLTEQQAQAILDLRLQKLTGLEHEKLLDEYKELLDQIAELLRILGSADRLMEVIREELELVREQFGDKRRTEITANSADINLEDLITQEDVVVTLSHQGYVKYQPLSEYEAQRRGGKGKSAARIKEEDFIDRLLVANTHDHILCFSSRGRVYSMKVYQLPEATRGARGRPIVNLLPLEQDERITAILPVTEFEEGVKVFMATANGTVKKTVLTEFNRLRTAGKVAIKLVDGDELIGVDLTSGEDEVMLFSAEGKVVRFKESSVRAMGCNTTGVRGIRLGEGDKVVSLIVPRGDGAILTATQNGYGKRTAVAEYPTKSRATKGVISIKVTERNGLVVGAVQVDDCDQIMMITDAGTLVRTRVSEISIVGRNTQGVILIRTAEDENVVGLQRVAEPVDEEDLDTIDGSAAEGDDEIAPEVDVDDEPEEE

With `CCn1c(=O)n(O)c(=O)c2cc(F)c(N3CCCC3)cc21` [Example 1, 1-Ethyl-6-fluoro-3-hydroxy-7-pyrrolidin-1-yl-1H-quinazoline-2,4-dione], the MIC was 32 µg/mL (≈ 109 µM) in experiment [1]; 2 µg/mL (≈ 6.82 µM) in experiment [2]; 4 µg/mL (≈ 13.6 µM) in experiment [3]; 1 µg/mL (≈ 3.41 µM) in experiment [4]; 32 µg/mL (≈ 109 µM) in experiment [5]; above 64 µg/mL in experiment [6].
Usually IC50 stands for the concentration at which inhibition is half-maximal. Regarding `CCn1c(=O)n(O)c(=O)c2cc(F)c(N3CCN(C)CC3)cc21` [Example 2, 1-Ethyl-6-fluoro-3-hydroxy-7-(4-methyl-piperazin-1-yl)-1H-quinazoline-2,4-dione], the half-inhibitory concentration (IC50) in experiment [7] was 22 µM; in experiment [8], above 100 µM. In addition, the MIC was above 64 µg/mL in experiment [1]; 4 µg/mL (≈ 12.4 µM) in experiment [2]; 16 µg/mL (≈ 49.6 µM) in experiment [3]; 2 µg/mL (≈ 6.2 µM) in experiment [4]; above 64 µg/mL in experiment [5]; 16 µg/mL (≈ 49.6 µM) in experiment [6].
Consider `CCn1c(=O)n(O)c(=O)c2cc(F)c(N3CCCCC3)cc21` [Example 4, 1-Ethyl-6-fluoro-3-hydroxy-7-piperidin-1-yl-1H-quinazoline-2,4-dione], for which the MIC in experiment [1] is 64 µg/mL (≈ 208 µM); in experiment [2] it was 16 µg/mL (≈ 52.1 µM); in experiment [3], 8 µg/mL (≈ 26 µM); in experiment [4], 16 µg/mL (≈ 52.1 µM); in experiment [5], 64 µg/mL (≈ 208 µM); in experiment [6] it was above 64 µg/mL.
As for `CCn1c(=O)n(O)c(=O)c2cc(F)c(N3CCC(CN)C3)cc21.Cl` (stereo not drawn) [Example 6, 7-(3-Aminomethyl-pyrrolidin-1-yl)-1-ethyl-6-fluoro-3-hydroxy-1H-quinazoline-2,4-dione, hydrochloride], the values for the IC50 in experiment [7] and in experiment [8] were 5.5 µM and 59 µM, respectively. Besides, the MIC in experiment [1] is 64 µg/mL; in experiment [2] it was 8 µg/mL; in experiment [3] it was 32 µg/mL; in experiment [4] it was 8 µg/mL; in experiment [5], 16 µg/mL; in experiment [6], 64 µg/mL.
For the molecule `CCn1c(=O)n(O)c(=O)c2cc(F)c(N3CCNCC3)cc21` [Example 7, 1-Ethyl-6-fluoro-3-hydroxy-7-piperazin-1-yl-1H-quinazoline-2,4-dione], the results for the IC50 in experiment [7] and in experiment [8] were above 100 µM and 49 µM, respectively. For the same molecule, the MIC in experiment [1] is above 64 µg/mL; in experiment [2] it was 4 µg/mL (≈ 13 µM); in experiment [3], above 64 µg/mL; in experiment [4] it was 8 µg/mL (≈ 25.9 µM); in experiment [5], above 64 µg/mL; in experiment [6], 16 µg/mL (≈ 51.9 µM).
Regarding `O=c1c2cc(F)c(N3CCCC3)cc2n(-c2ccc(O)cc2)c(=O)n1O` [Example 14, 1-(4-Hydroxyphenyl)-6-fluoro-3-hydroxy-7-pyrrolidin-yl-1-1H-quinazoline-2,4-dione], in experiment [7] (setting [9]), the IC50 is 46 µM. In addition, the MIC in experiment [1] was 32 µg/mL (≈ 89.6 µM); in experiment [2], 4 µg/mL (≈ 11.2 µM); in experiment [4], 1 µg/mL (≈ 2.8 µM); in experiment [5] it was 64 µg/mL (≈ 179 µM); in experiment [6] it was 64 µg/mL (≈ 179 µM).
With `Cl.NC1CCN(c2cc3c(cc2F)c(=O)n(O)c(=O)n3-c2ccc(F)cc2)C1` (stereo not drawn) [Example 17, 1-(4-Fluorophenyl)-6-fluoro-3-hydroxy-7-(3-aminopyrrolidin-1-yl)-1H-quinazoline-2,4-dione, hydrochloride], the MIC in experiment [1] is above 64 µg/mL; in experiment [2], 64 µg/mL; in experiment [4] it was 32 µg/mL; in experiment [5] it was 32 µg/mL; in experiment [6], above 64 µg/mL.
With `COc1cccc(-n2c(=O)n(O)c(=O)c3cc(F)c(N4CCCC4)cc32)c1` [Example 23, 1-(3-Methoxyphenyl)-6-fluoro-3-hydroxy-7-pyrrolidin-1-yl-1H-quinazoline-2,4-dione], the IC50 was 36 µM in experiment [7] (setting [9]) and above 100 µM in experiment [8] (setting [10]). Besides, the MIC was 32 µg/mL (≈ 86.2 µM) in experiment [1]; 32 µg/mL (≈ 86.2 µM) in experiment [2]; 32 µg/mL (≈ 86.2 µM) in experiment [4]; 32 µg/mL (≈ 86.2 µM) in experiment [5]; above 64 µg/mL in experiment [6].
Regarding `O=c1c2cc(F)c(N3CCCC3)cc2n(-c2cccc(F)c2)c(=O)n1O` [Example 28, 1-(3-Fluorophenyl)-6-fluoro-3-hydroxy-7-pyrrolidin-1-yl-1H-quinazoline-2,4-dione], the MIC in experiment [1] was 32 µg/mL (≈ 89.1 µM); in experiment [2], 2 µg/mL (≈ 5.57 µM); in experiment [4], 2 µg/mL (≈ 5.57 µM); in experiment [5] it was 32 µg/mL (≈ 89.1 µM); in experiment [6], above 64 µg/mL.
Turning to `O=c1c2cc(F)c(N3CCCC3)nc2n(C2CC2)c(=O)n1O` [Example 32, 1-Cyclopropyl-6-fluoro-3-hydroxy-7-pyrrolidin-1-yl-1H-pyrido[2,3-d]pyrimidine-2,4-dione], the figures for the IC50 in experiment [7] (setting [9]) and in experiment [8] (setting [10]) were 6.4 µM and above 100 µM, respectively. For the same molecule, the MIC in experiment [1] was 8 µg/mL (≈ 26.1 µM); in experiment [2], 0.5 µg/mL (≈ 1.63 µM); in experiment [4], 0.5 µg/mL (≈ 1.63 µM); in experiment [5], 64 µg/mL (≈ 209 µM); in experiment [6] it was above 64 µg/mL.
On to `CCn1c(=O)n(O)c(=O)c2cc(F)c(N3CCC(N)C3)nc21.O=C(O)C(F)(F)F` (stereo not drawn) [Example 36, 7-(3-Aminopyrrolidin-1-yl)-1-ethyl-6-fluoro-3-hydroxy-1H-pyrido[2,3-d]pyrimidine-2,4-dione, trifluoroacetate], for which the MIC worked out at 64 µg/mL in experiment [1]; 2 µg/mL in experiment [2]; 2 µg/mL in experiment [4]; 32 µg/mL in experiment [5]; 8 µg/mL in experiment [6].
On to `N[C@@H]1[C@H]2CN(c3cc4c(cc3F)c(=O)n(O)c(=O)n4C3CC3)C[C@@H]12.O=C(O)C(F)(F)F` [Example 42, (1α, 5α, 6α)7-(6-Amino-3-aza-bicyclo[3.1.0]hex-3-yl)-1-cyclopropyl-6-fluoro-3-hydroxy-1H-quinazoline-2,4-dione, trifluoroacetate], for which the IC50 was found to be 0.76 µM in experiment [7] (setting [9]) and 28 µM in experiment [8] (setting [10]). The “Minimum Inhibitory Concentrations S. aureus 29213” value in experiment [1] came out at 4.0 µg/mL. The “Minimum Inhibitory Concentrations E. coli B90” value in experiment [2] was found to be 0.25 µg/mL. In experiment [4], the “Minimum Inhibitory Concentrations E. coli Tol C” value came out at 0.25 µg/mL. In addition, the “Minimum Inhibitory Concentrations S. pyogenes C203” value in experiment [5] turned out to be 2.0 µg/mL. Besides, in experiment [6], the “Minimum Inhibitory Concentrations E. coli MC4100” value was 1.0 µg/mL.
As to `O=c1c2cc(F)c(N3CCCC3)c3c2n(c(=O)n1O)CCS3` [Example 44, 8-Fluoro-5-hydroxy-9-pyrrolidin-1-yl-2,3-dihydro-1-thia-3α,5-diaza-phenalene-4,6-dione], the IC50 in experiment [7] (setting [9]) was 12 µM; in experiment [8] (setting [10]) it was above 100 µM. The MIC in experiment [1] was 4 µg/mL (≈ 12.4 µM); in experiment [2], 1 µg/mL (≈ 3.09 µM); in experiment [4] it was 1 µg/mL (≈ 3.09 µM); in experiment [5], 32 µg/mL (≈ 99 µM); in experiment [6] it was above 64 µg/mL.
Regarding `NC1C2CN(c3c(F)cc4c(=O)n(O)c(=O)n5c4c3SCC5)CC12.O=C(O)C(F)(F)F` (stereo not drawn) [Example 46, (1α,5α,6α)9-(6-Amino-3-aza-bicyclo[3.1.0]hex-3-yl)-8-fluoro-5-hydroxy-2,3-dihydro-1-thia-3α,5-diaza-phenalene-4,6-dione, trifluoroacetate], the IC50 in experiment [7] (setting [9]) was 8.3 µM. For the same molecule, the “Minimum Inhibitory Concentrations S. aureus 29213” value in experiment [1] was above 64 µg/mL. The “Minimum Inhibitory Concentrations E. coli B90” value in experiment [2] came out at 2.0 µg/mL. In addition, the “Minimum Inhibitory Concentrations E. coli Tol C” value in experiment [4] was 1.0 µg/mL. For the same molecule, in experiment [5], the “Minimum Inhibitory Concentrations S. pyogenes C203” value worked out at 32 µg/mL. The “Minimum Inhibitory Concentrations E. coli MC4100” value in experiment [6] was found to be 8.0 µg/mL.
For the molecule `O=c1c2cc(F)c(N3CCCC3)nc2n(-c2ccc(F)cc2)c(=O)n1O` [Example 56, 6-Fluoro-1-(4-fluorophenyl)-3-hydroxy-7-pyrrolidin-1-yl-1H-pyrido[2,3-d]pyrimidine-2,4-dione], the MIC in experiment [1] stood at 8 µg/mL (≈ 22.2 µM); in experiment [2], 0.13 µg/mL (≈ 0.361 µM); in experiment [4], 0.13 µg/mL (≈ 0.361 µM); in experiment [5] it was 8 µg/mL (≈ 22.2 µM); in experiment [6], 16 µg/mL (≈ 44.4 µM).

For the origin of these results see US6825199B2, “7-Substituted quinazolin-2,4-diones useful as antibacterial agents” (Warner-Lambert Company, priority 1997, dated 2004).
